Results on six compounds are retold here after ChEMBL document CHEMBL5331047 (Eur J Med Chem, 2022).

A short description of data set [1]: Cmax in rat at 20 mg/kg. Also noted: dose 20 mg/kg. The note with it: in vivo. The data set is classed as ADME, organism-based.
A short description of data set [2]: AUC in rat at 20 mg/kg. Conditions: in vivo. Also noted: dose 20 mg/kg. The class given is ADME, organism-based.
A further data set has as its system Influenza A virus. Briefly: Antiviral activity against influenza A virus H5N1 infected in dog MDCK cells assessed as viral growth inhibition. The data set is classed as functional, organism-based.
Data set [3] can be described thus: Cmax in rat at 10 mg/kg. Also noted: dose 10 mg/kg. Conditions: in vivo. The data set is classed as ADME, organism-based.
Data set [4] can be described thus: AUC in rat at 10 mg/kg. The data set is classed as ADME, organism-based. Also noted: dose 10 mg/kg. The note with it: in vivo.
The target in a further data set is Neuraminidase (Influenza A virus, UniProt B4URF0).
Data set [5] in a line: Oral bioavailability in ferret at 10 mg/kg measured upto 24 hrs by LC-MS/MS assay. The data set is classed as ADME, organism-based, Mustela putorius furo. The note with it: in vivo.
The nature of data set [6]: Oral bioavailability in rat. The note with it: in vivo. The data set is classed as ADME, organism-based.

As usually defined, the Cmax is the peak of the concentration-time curve. Broadly, the AUC is the area under the concentration-time curve, a measure of exposure. A high value points to high exposure. In turn, `CCC(CC)O[C@@H]1C=C(C(=O)O)C[C@H](NCc2ccc(Sc3ccccc3)cc2)[C@H]1NC(C)=O` displayed a Cmax in data set [1] of 407 ng/mL. For the same compound, the AUC in data set [2] stood at 1500 ng·h/mL.
Usually EC50 stands for the concentration that produces a half-maximal response. With `CCC(CC)O[C@@H]1C=C(C(=O)O)C[C@H](NC(=O)COCCOCCOCCOCCN[C@H](C(=O)N2C[C@H](O)CC2C(=O)NCc2ccc(-c3scnc3C)cc2)C(C)(C)C)[C@H]1NC(C)=O` (some centres undefined), in the data set with Influenza A virus, the EC50 was 290 nM.
For `CCC(CC)O[C@@H]1C=C(C(=O)O)CC(N)[C@H]1NC(C)=O` (some centres undefined), the EC50 with Influenza A virus was determined as 2300 nM. The concentration in data set [3] peaked (Cmax) at 30 ng/mL. The compound further came in with an AUC in data set [4] of 300 ng·h/mL.
The term IC50 denotes the concentration needed to halve the response being measured. Read a high IC50 as a need for much substance. In the case of `CC(=O)N[C@@H]1[C@@H](N)CC(C(=O)O)=C[C@H]1OC1CCSC1` (some centres undefined), the IC50 against Neuraminidase worked out at 2.9 nM.
A word on the bioavailability: it is dose-corrected exposure relative to a reference, in per cent. A higher bioavailability goes with much systemic uptake. The compound `CCCCCCCC(=O)OC[C@@H](O)[C@@H](OC)[C@@H]1OC(C(=O)O)=C[C@H](NC(=N)N)[C@H]1NC(C)=O` [LANINAMIVIR OCTANOATE] displayed a bioavailability in data set [5] of 3.5%.
In data set [6], `CCC(CC)[C@H](NC(C)=O)[C@@H]1[C@H](O)[C@@H](C(=O)O)C[C@H]1NC(=N)N` [PERAMIVIR ANHYDROUS] registered a bioavailability of 2.5%.
